These results are taken from ChEMBL document CHEMBL3632556, “Synthesis and biological evaluation of new C-10 substituted dithranol pleiotropic hybrids” (Bioorg Med Chem, 2015).

Data set [1] is described as follows: Drug degradation in DMSO up to 48 hrs. It counts as physicochemical.
A short description of data set [2]: Antioxidant activity assessed as increase of DPPH free radical scavenging activity by measuring reducing activity at 100 uM after 60 mins by spectrophotometry. Type of data set: physicochemical. The conditions noted are these: 1 h. For orientation: DPPH is a stable violet radical that fades when it is reduced.
Data set [3] is described as follows: Antioxidant activity assessed as inhibition of AAPH-induced linoleic acid lipid peroxidation at 100 uM. Type of data set: physicochemical.
The next data set deals with Glycine max. The data set can be described thus: Inhibition of soybean LOX assessed as reduction in conversion of sodium linoleate to 13-hydroperoxylinoleic acid at 100 uM by UV analysis.
Data set [4] is described as follows: Antioxidant activity assessed as DPPH free radical scavenging activity by measuring reducing activity at 100 uM after 20 mins by spectrophotometry. It counts as physicochemical. Also on record: scale not given: the % may be the effect or the level left.
In data set [5] the test system is Rattus norvegicus. Kind of data set: Acute toxicity in Fisher 344 rat up to 0.1 mmol/kg, ip. It counts as organism-based. Conditions: in vivo; call rule not given here.
In data set [6] the test system is Rattus norvegicus. The data set can be described thus: Anti-inflammatory activity in Fisher 344 rat assessed as inhibition of carrageenan-induced paw edema at 0.01 mmol/kg, ip after 3.5 hrs. It counts as functional. The conditions noted are these: Fisher 344, ip. Background: Carrageenan injected into the paw causes an acute inflammation.
The nature of data set [7]: Cytotoxicity against human HaCaT cells assessed as cell survival at 0.01 uM after 48 hrs by MTT assay (reference value: 100%). It counts as cell-based. The conditions noted are these: read-out: Survival.
The nature of data set [8]: Cytotoxicity against human HaCaT cells assessed as cell survival at 0.1 uM after 48 hrs by MTT assay (reference value: 96.75 +/- 1.77%). It counts as cell-based. Conditions: read-out: Survival. On the technique in general: Tetrazolium dyes change colour on reduction, which living cells bring about.
Data set [9] can be described thus: Cytotoxicity against human HaCaT cells assessed as cell survival at 1 uM after 48 hrs by MTT assay (reference value: 97.50 +/- 0.71%). Type of data set: cell-based. The conditions noted are these: read-out: Survival.
Data set [10] concerns HaCaT. Kind of data set: Antiproliferative activity against human HaCaT cells after 24 hrs by MTT assay. Type of data set: functional, cell-based.
The nature of data set [11]: Cytotoxicity against human HaCaT cells assessed as cell survival at 10 uM after 48 hrs by MTT assay (reference value: 95.75 +/- 2.47%). It counts as cell-based. Conditions: read-out: Survival.
The nature of data set [12]: Cytotoxicity against human HaCaT cells assessed as cell survival at 100 uM after 48 hrs by MTT assay (reference value: 88.07 +/- 9.81%). The conditions noted are these: read-out: Survival. It counts as cell-based.
Data set [13] can be described thus: Inhibition of soybean LOX assessed as reduction in conversion of sodium linoleate to 13-hydroperoxylinoleic acid by UV analysis. Details: species or system Glycine max.
Data set [14] in a line: Lipophilicity, RM of the compound by RP-TLC method. It counts as physicochemical.
The test system of data set [15] is HaCaT. The data set can be described thus: Antiproliferative activity against human HaCaT cells. Type of data set: functional, cell-based.
Data set [16] can be described thus: Chemical stability in DMSO assessed as compound degradation at 1 mM after 5 days by HPLC analysis. The conditions noted are these: 120 h, 1000 µM. Type of data set: physicochemical.
A short description of data set [17]: Drug metabolism in DMSO assessed as formation of oxidative product danthron at 1 mM after 2 days by HPLC analysis. It counts as physicochemical. Conditions: 48 h, 1000 µM.

In general, inhibition refers to how much of the control response was suppressed. In general, inhibition in vivo refers to the relative decrease from the control value, in per cent. Usually IC50 stands for the midpoint of a concentration-inhibition curve.

Each structure is given as a SMILES string.

On to `O=C1c2cccc(Cl)c2Cc2c(Cl)cccc21`, for which the Stability result in data set [1] is reported as “Unstable”.
Take `NCCCCN(CCCN)C(=O)CC1c2cccc(O)c2C(=O)c2c(O)cccc21.O=C(O)C(F)(F)F.O=C(O)C(F)(F)F`: the values for the Activity entry (in data set [2]; in data set [4]; in the data set with Rattus norvegicus [5]) were “Not Active”, 48% and “Non-toxic”, respectively. In addition, in data set [3], the “inhibition (INH)” value is listed as 74%. Besides, the inhibition in the data set with Glycine max is 26%.
Turning to `O=C(O)CC1c2cccc(O)c2C(=O)c2c(O)cccc21`, the inhibition in vivo at 10 µmol/kg in the data set with Rattus norvegicus [6] came to 13%. The viability at 48 h, 0.01 µM in [7] was 87.1%. For the same molecule, the viability at 48 h, 0.1 µM in data set [8] came to 58%. In data set [9], the viability at 48 h, 1 µM worked out at 60.4%. The IC50 with HaCaT [10] worked out at 1.9 µM; in data set [13] (read-out: IC50), 50 µM. Besides, the Activity result in [2] is on record as “Active”; in data set [4], 25%; with Rattus norvegicus [5], “Non-toxic”. In [3], the “inhibition (INH)” value is listed as 20%. The viability at 48 h, 10 µM in data set [11] stood at 42%. In addition, the viability at 48 h, 100 µM in data set [12] was 41.2%.
On to `CCCCNC(=O)CC1c2cccc(O)c2C(=O)c2c(O)cccc21`, for which the inhibition in vivo at 10 µmol/kg with Rattus norvegicus [6] came to 35%. The viability at 48 h, 0.01 µM in [7] is 87.2%. Moreover, the viability at 48 h, 0.1 µM in [8] was found to be 83.7%. Moreover, the viability at 48 h, 1 µM in data set [9] is 80.9%. Also, the IC50 with HaCaT [10] was 5.4 µM; in data set [13] (read-out: IC50), 10 µM. Further, the Activity entry in [2] was “Active”; in data set [4], 31%; in the data set on Rattus norvegicus [5], “Non-toxic”. The “inhibition (INH)” value in data set [3] amounted to 59%. In addition, the viability at 48 h, 10 µM in data set [11] is 24.4%. Besides, the Rm in [14] is given as 0.05. For the same molecule, the viability at 48 h, 100 µM in data set [12] was 13.7%.
As for `CC(C)(C)OC(=O)NCCCCNC(=O)CC1c2cccc(O)c2C(=O)c2c(O)cccc21`, the Activity result is “Not Active” in data set [2], 33% in data set [4] and “Non-toxic” with Rattus norvegicus [5]. In data set [3], the “inhibition (INH)” value was found to be 62%. In addition, the inhibition in the data set on Glycine max was found to be 46%.
Take `CCCCCCCCCCCCNC(=O)CC1c2cccc(O)c2C(=O)c2c(O)cccc21`: the viability at 48 h, 0.01 µM in [7] was 55.9%. The viability at 48 h, 0.1 µM in data set [8] came to 37.7%. The viability at 48 h, 1 µM in data set [9] was 14.6%. The molecule also showed an IC50 with HaCaT [10] of 0.022 µM. Moreover, the Activity entry in [2] is reported as “Not Active”; in data set [4], 98%; with Rattus norvegicus [5] it was “Non-toxic”. Moreover, the “inhibition (INH)” value in [3] came out at 74%. The viability at 48 h, 10 µM in [11] came out at 7.79%. The viability at 48 h, 100 µM in data set [12] was determined as 1.22%. Further, the inhibition with Glycine max worked out at 32%.
Turning to `O=C(CC1c2cccc(O)c2C(=O)c2c(O)cccc21)NCc1ccccc1`, the inhibition in vivo at 10 µmol/kg in the data set on Rattus norvegicus [6] came out at 35%. The Activity result is “Active” in data set [2], 20% in data set [4] and “Non-toxic” in the data set on Rattus norvegicus [5]. Further, the “inhibition (INH)” value in data set [3] is 66%. In data set [14], this molecule yielded a Rm of 0.66. Further, the IC50 in data set [13] (read-out: IC50) turned out to be 7.9 µM.
`O=C1c2c(O)cccc2Cc2cccc(O)c21` [ANTHRALIN]: the inhibition in vivo at 10 µmol/kg in the data set on Rattus norvegicus [6] turned out to be 42%. Also, the viability at 48 h, 0.01 µM in data set [7] was 94.5%. In addition, the viability at 48 h, 0.1 µM in [8] came to 87.8%. Moreover, the IC50 in the data set with HaCaT [15] was 0.7 µM; with HaCaT [10], 0.945 µM; in [13] it was “Not Active”. Besides, the viability at 48 h, 1 µM in data set [9] came out at 48.1%. For the same molecule, the Activity result in [2] is reported as “Active”; in data set [4], 31%; in the data set on Rattus norvegicus [5], “Non-toxic”. For the same molecule, in [3], the “inhibition (INH)” value is on record as 28%. Also, the viability at 48 h, 10 µM in data set [11] is 5.23%. This molecule showed a Rm in data set [14] of 0.7. Moreover, the viability at 48 h, 100 µM in [12] is 1.7%.
As for `CCOC(=O)CC1c2cccc(O)c2C(=O)c2c(O)cccc21`, the viability at 48 h, 0.01 µM in [7] turned out to be 47%. In data set [8], the viability at 48 h, 0.1 µM is 53.4%. The viability at 48 h, 1 µM in data set [9] is 49.9%. Further, the figures for the IC50 (in the data set with HaCaT [10]; in [13] (read-out: IC50)) were 0.357 µM and 44.5 µM, respectively. The Activity result is “Active” in [2], 31% in data set [4] and “Non-toxic” with Rattus norvegicus [5]. In addition, the “inhibition (INH)” value in data set [3] was 14%. Moreover, the viability at 48 h, 10 µM in [11] turned out to be 28.8%. This molecule also gave a Rm in [14] of 0.63. Further, in data set [12], the viability at 48 h, 100 µM came out at 6.5%.
In the case of `O=C(CC1c2cccc(O)c2C(=O)c2c(O)cccc21)NCCc1ccc(O)c(O)c1`, the viability at 48 h, 0.01 µM in data set [7] came to 91.1%. The viability at 48 h, 0.1 µM in data set [8] came out at 114%. Also, the viability at 48 h, 1 µM in [9] was 112%. The same molecule yielded an IC50 in the data set on HaCaT [10] of 100 µM. The values for the Activity result (in data set [2]; in [4]; with Rattus norvegicus [5]) were “Not Active”, 32% and “Non-toxic”, respectively. Further, the “inhibition (INH)” value in data set [3] was 5%. In addition, the viability at 48 h, 10 µM in data set [11] was 128%. For the same molecule, the viability at 48 h, 100 µM in data set [12] came to 2.98%. Moreover, the inhibition in the data set with Glycine max came to 42%.
As for `COc1ccc(C(NC(=O)CC2c3cccc(O)c3C(=O)c3c(O)cccc32)c2ccc(OC)cc2)cc1`, the Stability result in data set [16] and in data set [17] was “Stable” in each case. In addition, in the data set with Rattus norvegicus [6], the inhibition in vivo at 10 µmol/kg came to 79.7%. In [7], the viability at 48 h, 0.01 µM came out at 79.8%. In addition, in [8], the viability at 48 h, 0.1 µM is 44%. The viability at 48 h, 1 µM in data set [9] came out at 38%. Also, the IC50 came out at 0.56 µM in the data set on HaCaT [10] and 7 µM in data set [13] (read-out: IC50). Further, the Activity result in data set [2] is “Active”; in data set [4], 86%; in the data set with Rattus norvegicus [5], “Non-toxic”. The “inhibition (INH)” value in data set [3] came to 95%. The viability at 48 h, 10 µM in data set [11] turned out to be 20.3%. In data set [14], this molecule returned a Rm of 0.66. Besides, the viability at 48 h, 100 µM in [12] was 9.65%.
For `NCCCCNC(=O)CC1c2cccc(O)c2C(=O)c2c(O)cccc21.O=C(O)C(F)(F)F`, the Activity entry in data set [2] is reported as “Not Active”; in data set [4] it was 65%; in the data set with Rattus norvegicus [5] it was “Non-toxic”. Moreover, the “inhibition (INH)” value in [3] is recorded as 91%. In [14], this molecule returned a Rm of 0.63. In the data set with Glycine max, the inhibition came out at 35%.
